US11807871B2, “Complex human gut microbiome cultured in an anaerobic human gut-on-a-chip” (President and Fellows of Harvard College, priority 2018, dated 2023)

The compounds below were run on primary human colon epithelial cells infected with EHEC (assay: Colon chip EHEC infection, epithelial lesion analysis). Details: metabolites added individually to a colon-chip.
Type: cell-based
Method: Referring generally to FIGS. 18A-18C, microbiome metabolites recapitulate species-specific tolerance in Colon Chips. Human or mouse intestinal microbiome metabolites (e.g., isolated from specific strains of bacterial or fecal samples incubated in a bioreactor) were added to the intestinal channel of optically clear, human colon chips that are lined by primary human colon epithelial cells and directly opposed to a second parallel vascular microchannel in which HIMVECs are cultured. The two channels are separated by a thin, porous, ECM-coated membrane. Human intestinal epithelium was isolated from resections or endoscopic tissue biopsies. Endoscopic biopsies were collected from macroscopicallynormal (grossly unaffected) areas of the colon undergoing endoscopy for abdominal complaints. Organoids were grown from these tissue samples and seeded into the upper chamber of a two channel closed top microfluidic device. Human intestinal microvascular endothelial cells (HIMECs) were obtained from ScienCell (Cat #2900). The intestinal luminal channel medium was switched to 5% (vol vol-1) human (Hmm) or mouse (Mmm) gut microbiome metabolites isolated from PolyFermS bioreactors, diluted in phosphate-buffered saline (PBS) containing calcium and magnesium (final osmolarity=300 mOsm kg-1), filtered through a 0.2 μm filter (Corning), and stored at −80° C.
For example, on day 8 of a colon chip culture, the luminal culture medium is replaced with the same medium supplemented with human or murine microbiome metabolites (diluted 1:20 in a PBS-water based solution to 300 mOsm kg-1), while continuing to flow the same endothelial culture medium through the vascular channel. Perfusion is continued for 24 hours, followed by introduction of EHEC (1.7×105; serotype O157:H7) into the apical lumen in the same medium for 3 hours under static conditions to allow for bacterial cell attachment; medium flow is then re-established and continued for 24 additional hours.
Referring to colon chip infection, colon chips were cultured in the intestinal lumen channel of a chip in 5% (vol vol-1) human or mouse gut microbiome metabolites isolated from PolyFermS bioreactors, diluted in phosphate-buffered saline (PBS; final osmolarity=300 mOsm kg-1) or 24 hours. The following day, the intestinal channel was infected with 1.7×105. EHEC-GFP or EHEC A fliC (both generated from NR-3 E. coli/EDL931; serotype O157:H7), by adding the bacteria into the channel lumen in medium again with or without Hmm or Mmm. […]
For epithelial lesion analysis, one day post-infection, colon chips were washed with PBS and fixed with 4% paraformaldehyde in PBS for 2 hours. […] The area occupied by cells and the total area of the chip were measured using Fiji software.
`Cc1ccc(C(=O)O)cc1C` [3,4-dimethylbenzoic acid] was tested, and the “epithelial injury during a EHEC infection of the chip” value was “enhance epithelial injury”. In the case of `Cc1ccc(C(=O)O)cc1` [4-methyl benzoic acid], the “epithelial injury during a EHEC infection of the chip” value is reported as “enhance epithelial injury”. With `CCCCCCC(=O)O` [heptanoic acid] the “epithelial injury during a EHEC infection of the chip” value was “enhance epithelial injury”. `CCCCCC(=O)O` [hexanoic acid] was tested, and the “epithelial injury during a EHEC infection of the chip” value was “enhance epithelial injury”.
